Reference: patent publication US4892813A, “Method for the determination of the enzymatic activity of convertase” (Centre National de la Recherche Scientifique, priority 1987, dated 1990)
Each block holds one substance with its values, some of them ahead of it. Where no end group is shown, it is not given here.

Key:
Format in all cases: biochemical, rat
[1] = test system: somatostatin convertase; assay: Conversion of iodine-125-labeled peptide I by brain extracts, specific activity (% of peptide II generated); settings: molecular sieve fraction, peptide I (20,000 cpm), 2 hours, % of starting materials
Method: (§1) Male Wistar rats (100-120 g) were sacrificed by quick decapitation and the cerebral cortex was removed immediately. The fresh dissected tissue was homogenized in a Potter Elvehjem apparatus in a buffer solution of phosphate (pH 7.4) at a concentration of 50 mM and potassium chloride at a concentration of 200 mM (5 ml of buffer per cortex).
(§2) The extract was then centrifuged at 3000×g for 15 minutes and the supernatant was filtered on a Sephadex G-150 column in 0.25M Tris-HCl (pH 7).
(§3) The proteolytic activities were tested in the following way. The peptide I labeled with iodine 125 (20,000 cpm), dissolved in 10 μl of 250 mM Tris-HCl (pH 7), was incubated at 37° C. with an aliquot either of crude extract of rat cerebral cortex or of fractions derived from gel filtration or derived from ion exchange chromatography (final volume of 300 μl in 0.25M Tris-HCl (pH 7)).
(§4) 50 μl samples of the mixture were taken at different times during the reaction and the reaction was stopped by the addition of 600 μl of CM-52 resin in 30 mM ammonium acetate (pH 6) (1:10, vol./vol.). The mixture was then centrifuged at 10,000×g for 30 seconds on a Beckman microcentrifuge. […] After the second washing by elution at each of its saline concentrations, the iodinated products retained on the resin were counted.
(§5) The results were calculated as follows: [formula] where the specific activity represents the percentage of peptides II generated, the undesirable activity represents the percentage of Asn-^125 I-Tyr(NH2) generated, t is the total cpm in 50 μl of the mixture, x1 is the cpm found after washing with the 30 mM ammonium acetate, x2 is the cpm found after washing with the 100 mM ammonium acetate, and y1 and y2 are the cpm values found respectively after the 30 mM and 100 mM washings of the resin with the peptide I by itself.
(§6) The extracts were obtained from three regions of the brain and were fractionated by filtration on a molecular sieve. A 50 μl aliquot corresponding to an activity peak was incubated with the peptide I (20,000 cpm) for 2 hours and the products were analyzed by ion exchange.

[2] = test system: undesirable activity; assay: Conversion of iodine-125-labeled peptide I by brain extracts, undesirable activity (% of Asn-^125 I-Tyr(NH2) generated); settings: molecular sieve fraction, peptide I (20,000 cpm), 2 hours, % of starting materials
Method: as §1, §2, §3, §4, §5, §6

[3] = test system: somatostatin convertase; assay: Competition of peptides with iodinated peptide I in the enzymatic conversion by somatostatin convertase; settings: 1 μl of each peptide or 2 μg of somatostatin 28; ^125 I peptide I (30,000 cpm), pH 7, 37° C., 2 hours; 0% = maximum conversion of peptide I to peptide II
Method: The ability of several analogous peptides to compete with the peptide I in the enzymatic conversion was evaluated by means of competition experiments. The results given in the table which follows indicate that either the peptide of 28 AA (S-28) or the noniodinated substrate of II AA (deiodinated peptide I) competed effectively (75% and 85% respectively) with the iodinated peptide I. It is interesting to observe that simple replacement of Lys with Arg in the dibasic doublet (cleavage site) produced a peptide III, which competed with the iodinated substrate (peptide I) with an efficacy of only 30%.
The enzyme prepared from the Sephadex G150 column was incubated in a
mixture containing either 1 μl of each of the peptides described above
or 2 μg of somatostatin 28 and ^125 IPeptide I (30,000 cpm) in a
buffer solution of TrisHCl (pH 7) at 37° C. for 2 hours. 0%
inhibition corresponds to a maximum conversion of the peptide I to the […]

% of products generated, Peptide II labeled with 125I ([1]; Hypothalamus extract): 7%
% of products generated, Peptide II labeled with 125I ([1]; Neocortex extract): 18%
% of products generated, Peptide II labeled with 125I ([1]; Pituitary gland extract): 20%
Substance: Ala-Gly-Ala-Lys-Asn-Tyr(NH2)* [Peptide II]

Substance: Asn-^125 I-Tyr(NH2)
% of products generated, Asn-^125 I-Tyr(NH2) ([2]; Hypothalamus extract): 90%
% of products generated, Asn-^125 I-Tyr(NH2) ([2]; Neocortex extract): 40%
% of products generated, Asn-^125 I-Tyr(NH2) ([2]; Pituitary gland extract): 37%

% inhibition of the conversion activity (competition with iodinated peptide I) [3]: 85%
Substance: PRERKAGAKNY-NH2 [De^125 IPeptide I]

Substance: Somatostatin 28: direct precursor of somato 14, a peptide consisting of 28 AA [reference compound]
% inhibition of the conversion activity (competition with iodinated peptide I) [3]: 75%
